In patent US11648239B2, “Azophenols as ERG oncogene inhibitors” (The Henry M. Jackson Foundation for the Advancement of …, priority 2015, dated 2023):

Columns and labels:
ERG protein [1] = molecular target: T1, ERG protein (Homo sapiens, UniProt P11308); test: Inhibition of ERG protein in VCaP cells (Western blot); type: cell-based; details: for inhibition of ERG protein in VCaP cells: 0.1, 0.2, 0.4, 0.6, 0.8 and 1 μM, FIG. 13, 16; for inhibition of endogenous ERG protein: VCaP, 0.25 μM and 1 μM, FIG. 2
T1 construct: host or cells: VCaP
T1 sequence (P11308 33-479 limits assumed): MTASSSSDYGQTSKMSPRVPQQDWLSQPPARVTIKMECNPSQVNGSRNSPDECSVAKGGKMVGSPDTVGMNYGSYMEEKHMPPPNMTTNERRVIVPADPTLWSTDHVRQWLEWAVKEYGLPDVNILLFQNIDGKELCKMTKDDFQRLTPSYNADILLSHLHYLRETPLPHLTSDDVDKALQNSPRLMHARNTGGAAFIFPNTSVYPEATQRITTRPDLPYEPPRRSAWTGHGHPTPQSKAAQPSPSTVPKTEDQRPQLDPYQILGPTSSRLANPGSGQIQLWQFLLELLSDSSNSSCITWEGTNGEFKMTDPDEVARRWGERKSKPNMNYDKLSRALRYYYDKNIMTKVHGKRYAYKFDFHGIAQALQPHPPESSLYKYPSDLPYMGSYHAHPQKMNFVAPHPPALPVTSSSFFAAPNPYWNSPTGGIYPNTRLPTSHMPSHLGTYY
Procedure: The TMPRSS2-ERG fusion positive prostate cancer cell line, VCaP (ATCC), was used to identify the test compound inhibitors of ERG expression. Cells were grown in medium using conditions prescribed by the vendor. VCaP cells in logarithmic growth were seeded in a tissue culture dish at a cell density of 2×10^6 cells per plate. Following 48 hours incubation at 37° C., cells were exposed for a period of 48 hours with 0, 0.05, 0.25 and 0.5 μM concentrations of each test azophenol compound. The inhibition of ERG expression was evaluated by an In-cell Western blot assay (LI-COR Biosciences, Lincoln, Nebr.) using the ERG specific CPDR ERG-MAb as further described below.
(§1) Inhibition of ERG protein expression by the test compounds were determined by Western blot analysis. The ERG specific monoclonal antibody CPDR ERG-MAb was used as the primary antibody. In brief, Western blot was performed by running a fixed amount of total protein extracted from cell lysates of the treated cells using (4-12% Bis-Tris) gel by electrophoresis, followed by transfer to membrane and incubation with primary antibody and continued with HRP-conjugated secondary antibody. Cultured cells were treated at specific dosages with each of the tested ERG inhibitors. Following incubation of the treated cells for an indicated time period, cells were lysed using Mammalian Protein Extraction Reagent (M-PER; Pierce, Rockford, Ill.) containing a protease inhibitor cocktail and phosphatase inhibitor cocktails I & III (Sigma, St Louis, Mo.). Cell lysates containing 50 μg of total protein were electrophoresed through 4-12% Bis-Tris Gel (Invitrogen, Carlsbad, Calif.) and the cellular proteins were transferred to PVDF membrane (Invitrogen, Carlsbad, Calif.). Membranes were incubated at 4° C. for 12 hours with primary antibodies for AR, PSA, GAPDH, α-Tubulin, apoptosis markers and cell cycle regulators. Following exposure to primary antibodies, the membranes were washed with buffer (3×, 5 minutes each at room temperature) followed by incubation with relevant secondary antibodies for 1 hour at 24° C. Finally, the membranes were washed with buffer and developed using the ECL Western blot detection reagent (GE Health Care, Buckinghamshire, UK). The ERG protein expression of the test azophenol compounds were normalized with GAPDH.
In brief, ERG positive VCaP cells in loganthmic growth phase were plated in 10 cm tissue culture dish at a cell density of 2×10^6 cells per dish. The plated cells were treated with 0, 0.2, 0.4, 0.6, 0.8 and 1 μM concentrations of each azophenol compound for a period of 48 hours. Cells from each dish were then processed for Western blot analysis and alterations in the expression of ERG protein were monitored. Both ERG and GAPDH protein band were quantified from each concentration using Image J (NIH) and ERG band density was normalized with corresponding GAPDH protein control. Relative density of ERG in each concentration was calculated and with Graphpad Prism 6 software, the IC50 of each compound was calculated.

VCaP cells = test: VCaP cell growth inhibition; type: cell-based; details: for inhibition of VCaP cell growth: 0.1, 0.2, 0.4, 0.6, 0.8 and 1 μM, FIG. 15, 18; for inhibition of the growth of ERG harboring prostate cancer cells: VCaP, 0.25 μM and 1 μM, FIG. 3
Procedure: (§2) Approximately 48 hours following plating of cells, the appropriate test compound is added to each well of the tissue culture dish at a predetermined concentration. The medium was replenished every 24 hours with fresh growth medium containing the same concentration of the same test compound for indicated period of the cell growth inhibition assay. Percent cell growth inhibition was calculated using a hemocytometer for estimating cell density in each of the test wells of the tissue culture dish and trypan blue dye exclusion microscopy and photography to estimate the fraction of viable cells in each test well.
To investigate whether the azophenol compounds selectively arrested the growth of ERG positive cancer cells (VCaP), VCaP cells were cultured to achieve cells in logarithmic growth and these cells were then plated in 6 well tissue culture dishes in duplicates at a cell density of 0.2×10^6 cells per well. The plated cells were exposed to 0, 0.2, 0.4, 0.6, 0.8 and 1 μM concentrations of each compound for a period of 8 days. At the end of time period, cells were recovered from the test plate, washed, trypsinized and the cell density of viable cells were determined with trypan blue dye staining method and automated cell counter Bio-Rad TC10. The IC50 of cell growth inhibition of each compound was determined by trypsinizing the cells at the end of the experiment and counting the cells by using the automated cell counter (Bio-Rad TC10 automated cell counter). The average cell numbers of each concentration were used to calculate the IC50 of each compound with the GraphPad Prism 6 software.

AR [2] = test: Inhibition of endogenous AR protein in VCaP cells (Western blot); type: cell-based; details: 0.25 μM and 1 μM, FIG. 2
Procedure: as §1, with “Following exposure to primary antibodies, the membranes were washed with buffer (3×, 5 minutes each at room temperature) followed by incubation with relevant secondary antibodies for 1 hour at 24° C. Finally, the membranes were washed with buffer and developed using the ECL Western blot detection reagent (GE Health Care, Buckinghamshire, UK). The ERG protein expression of the test azophenol compounds were normalized with GAPDH.” left out

PSA [3] = test: Inhibition of endogenous PSA protein in VCaP cells (Western blot); type: cell-based; details: 0.25 μM and 1 μM, FIG. 2
Procedure: as §1, with “Following exposure to primary antibodies, the membranes were washed with buffer (3×, 5 minutes each at room temperature) followed by incubation with relevant secondary antibodies for 1 hour at 24° C. Finally, the membranes were washed with buffer and developed using the ECL Western blot detection reagent (GE Health Care, Buckinghamshire, UK). The ERG protein expression of the test azophenol compounds were normalized with GAPDH.” left out

AR [4] = test: Inhibition of endogenous AR protein in LNCaP cells (Western blot); type: cell-based; details: ERG negative LNCaP; 0.25 μM and 1 μM; FIG. 4
Procedure: (§3) To investigate whether the azophenol compounds of the invention are selective inhibitors of ERG protein expression, representative azophenol compounds were further tested for its ability to inhibit AR and PSA activity in the following AR positive/ERG negative prostate cancer cell lines: LNCaP (mutant AR positive and ERG negative), as well as in LAPC4 cells that are AR (wild type) positive and ERG negative.
(§4) Inhibition of ERG protein expression by the test compounds were determined by Western blot analysis. The ERG specific monoclonal antibody CPDR ERG-MAb was used as the primary antibody. In brief, Western blot was performed by running a fixed amount of total protein extracted from cell lysates of the treated cells using (4-12% Bis-Tris) gel by electrophoresis, followed by transfer to membrane and incubation with primary antibody and continued with HRP-conjugated secondary antibody. Cultured cells were treated at specific dosages with each of the tested ERG inhibitors. Following incubation of the treated cells for an indicated time period, cells were lysed using Mammalian Protein Extraction Reagent (M-PER; Pierce, Rockford, Ill.) containing a protease inhibitor cocktail and phosphatase inhibitor cocktails I & III (Sigma, St Louis, Mo.). […]

PSA [5] = test: Inhibition of endogenous PSA protein in LNCaP cells (Western blot); type: cell-based; details: ERG negative LNCaP; 0.25 μM and 1 μM; FIG. 4
Procedure: as §3, §4

LNCaP cells = test: LNCaP cell growth; type: cell-based; details: 0.25 μM and 1 μM, FIG. 5
Procedure: as §2

AR [6] = test: Inhibition of endogenous AR protein in LAPC-4 cells (Western blot); type: cell-based; details: ERG negative LAPC-4; 0.25 μM and 1 μM; FIG. 6
Procedure: as §3, §4

LAPC-4 cells = test: LAPC-4 cell growth; type: cell-based; details: 0.25 μM and 1 μM, FIG. 7
Procedure: as §2

RIOK2 protein [7] = molecular target: T2, RIOK2 protein (Homo sapiens, UniProt Q9BVS4); test: Inhibition of endogenous RIOK2 protein in COLO320 cells (Western blot); type: cell-based; details: 0.25 μM and 1 μM, FIG. 8
T2 sequence (Q9BVS4 whole entry): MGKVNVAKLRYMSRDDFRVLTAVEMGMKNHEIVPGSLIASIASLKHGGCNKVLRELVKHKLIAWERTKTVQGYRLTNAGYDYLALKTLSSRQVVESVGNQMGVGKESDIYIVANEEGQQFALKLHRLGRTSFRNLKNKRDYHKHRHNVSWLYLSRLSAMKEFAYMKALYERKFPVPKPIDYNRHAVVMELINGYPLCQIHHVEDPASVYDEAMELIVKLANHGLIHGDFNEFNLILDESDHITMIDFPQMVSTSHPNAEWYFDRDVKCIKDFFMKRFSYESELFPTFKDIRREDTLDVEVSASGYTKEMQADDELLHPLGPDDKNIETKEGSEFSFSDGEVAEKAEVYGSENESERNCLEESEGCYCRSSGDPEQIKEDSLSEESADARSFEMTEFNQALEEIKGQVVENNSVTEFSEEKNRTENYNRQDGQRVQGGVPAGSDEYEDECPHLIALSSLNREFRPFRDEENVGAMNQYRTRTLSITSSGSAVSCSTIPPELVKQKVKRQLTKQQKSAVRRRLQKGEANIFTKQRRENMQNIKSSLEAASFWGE

COLO320 cells = test: COLO320 cell growth; type: cell-based; details: 0.25 μM and 1 μM, FIG. 9
Procedure: as §2

ERG protein [8] = molecular target: T3, ERG protein (Homo sapiens, UniProt P11308); test: Inhibition of ERG protein in HUVEC normal endothelial cells (Western blot); type: cell-based; details: 0.25 μM and 1 μM, FIG. 10
T3 sequence (P11308 1-479): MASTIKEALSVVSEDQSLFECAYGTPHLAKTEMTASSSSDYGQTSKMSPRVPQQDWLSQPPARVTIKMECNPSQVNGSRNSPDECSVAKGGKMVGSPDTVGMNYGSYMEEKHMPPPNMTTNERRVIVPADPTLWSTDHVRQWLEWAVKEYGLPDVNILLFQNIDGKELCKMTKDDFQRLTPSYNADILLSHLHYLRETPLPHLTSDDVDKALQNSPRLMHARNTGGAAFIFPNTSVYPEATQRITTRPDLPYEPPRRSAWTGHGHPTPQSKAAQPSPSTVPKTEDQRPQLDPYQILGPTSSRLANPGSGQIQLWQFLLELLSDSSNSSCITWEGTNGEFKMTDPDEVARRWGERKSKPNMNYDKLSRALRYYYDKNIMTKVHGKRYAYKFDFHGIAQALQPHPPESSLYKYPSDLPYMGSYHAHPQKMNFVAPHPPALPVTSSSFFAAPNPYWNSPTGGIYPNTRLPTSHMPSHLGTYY
Procedure: as §1, with “Following exposure to primary antibodies, the membranes were washed with buffer (3×, 5 minutes each at room temperature) followed by incubation with relevant secondary antibodies for 1 hour at 24° C. Finally, the membranes were washed with buffer and developed using the ECL Western blot detection reagent (GE Health Care, Buckinghamshire, UK). The ERG protein expression of the test azophenol compounds were normalized with GAPDH.” left out

HUVEC = HUVEC cell growth; type: cell-based, human; details: 0.25 μM and 1 μM, FIG. 11
Procedure: as §2

BPH-1 cells = test: BPH-1 cell growth; type: cell-based; details: 0.25 μM and 1 μM, FIG. 12
Procedure: as §2

RWPE-1 cells = test: RWPE-1 cell growth; type: cell-based; details: 0.25 μM and 1 μM, FIG. 12
Procedure: as §2

RIOK2 protein [9] = molecular target: T2, RIOK2 protein; test: Inhibition of RIOK2 protein in VCaP cells (Western blot); type: cell-based; parameters: host or cells: VCaP; details: 0.1, 0.2, 0.4, 0.6, 0.8 and 1 μM; FIG. 14, 17
ERG protein [10] = molecular target: T3, ERG protein; test: Inhibition of endogenous ERG protein in COLO320 cells (Western blot); type: cell-based; parameters: host or cells: COLO320; details: 0.25 μM and 1 μM, FIG. 8
Procedure: as §1, with “Following exposure to primary antibodies, the membranes were washed with buffer (3×, 5 minutes each at room temperature) followed by incubation with relevant secondary antibodies for 1 hour at 24° C. Finally, the membranes were washed with buffer and developed using the ECL Western blot detection reagent (GE Health Care, Buckinghamshire, UK). The ERG protein expression of the test azophenol compounds were normalized with GAPDH.” left out

RIOK2 protein [11] = molecular target: T2, RIOK2 protein; test: Inhibition of RIOK2 protein in HUVEC normal endothelial cells (Western blot); type: cell-based; parameters: ERG and RIOK2 proteins in endogenous ERG expressing normal endothelial cells (HUVEC); host or cells: HUVEC; details: 0.25 μM and 1 μM, FIG. 10

Compound | inhibition of ERG protein in VCaP cells (ERG protein [1]) | inhibition of endogenous ERG protein (ERG protein [1]) | inhibition of VCaP cell growth (VCaP cells) | inhibition of the growth of ERG harboring prostate cancer cells (VCaP cells) | inhibition of endogenous AR protein (AR [2]) | inhibition of endogenous PSA protein (PSA [3]) | inhibition of endogenous AR protein (AR [4]) | inhibition of endogenous PSA protein (PSA [5]) | growth of ERG negative prostate cancer cells (LNCaP cells) | inhibition of endogenous AR protein (AR [6]) | growth of ERG negative prostate cancer cells (LAPC-4 cells) | inhibition of endogenous RIOK2 protein (RIOK2 protein [7]) | inhibition of growth of ERG harboring colon cancer cells (COLO320 cells) | inhibition of ERG protein (ERG protein [8]) | growth of ERG harboring normal endothelial cells (HUVEC) | growth of ERG negative prostate-derived immortalized cells (BPH-1 cells) | growth of ERG negative prostate-derived immortalized cells (RWPE-1 cells) | inhibition of RIOK2 protein in VCaP cells (RIOK2 protein [9]) | inhibition of endogenous ERG protein (ERG protein [10]) | inhibition of RIOK2 protein (RIOK2 protein [11])
CC(C)c1ccc(O)c(N=Nc2nccs2)c1 [Compound 1] | inhibition | inhibition | inhibition | inhibition | inhibition | inhibition | lack of inhibition | lack of inhibition | do not affect the growth | do not inhibit | do not affect the growth | inhibition | inhibition | lack of inhibition | do not affect the growth | do not affect the growth | do not affect the growth | inhibition | inhibition | lack of inhibition
Cc1ccc(O)c(N=Nc2nccs2)c1 [Compound 2] | inhibition | inhibition | inhibition | inhibition | inhibition | inhibition | lack of inhibition | lack of inhibition | do not affect the growth | do not inhibit | do not affect the growth | inhibition | inhibition | lack of inhibition | do not affect the growth | do not affect the growth | do not affect the growth | inhibition | inhibition | lack of inhibition
